From patent US20260241307A1, “PROCESS FOR MAKING DRUG CRYSTALS OF DESIRED SIZE DISTRIBUTION AND MORPHOLOGY” (EUPRAXIA PHARMACEUTICALS INC., priority 2019, published 2026)

Key:
Assay type in all cases: physicochemical
[1] = Laser diffraction particle size analysis of recrystallized crystals; settings: large scale batch, recrystallized from methanol, slow evaporation, isotherm 25° C.
Source text: As used herein, laser diffraction is the methodology used for measuring and analyzing particle size and size distribution of a sample or collection of particles (e.g., the recrystallized columnar crystals and the sized crystals). More specifically, a D10 value refers to the diameter at which 10% of the sample's mass is comprised of particles with a diameter less than this value. Likewise, a D50 value is the diameter of the particle that 50% of a sample's mass is smaller than and 50% of a sample's mass is larger than the value.
In histogram, D10, D50 and D90 are intercepts for 10%, 50% and 90% of the cumulative mass in the particles size. Since the density is the same for all particles, then the mass and volume are linearly related, thus the % remains the same. The method used also reports the cumulative distribution in volume.
Different large-scale batches were run to show the reproducibility of the recrystallization method. Laser diffraction results of particle size analysis for four large scale batches are below:
(§1) The laser diffraction method assumes an equivalent sphere when calculating the results. The aspect ratio in the imaging analysis show a range of aspect ratio from 3 to 50, while a majority of aspect ratios are in the range of 5-20.

[2] = Imaging analysis of aspect ratio
Source text: as §1

[3] = Particle size distribution by Malvern particle size analyzer (sized crystals); settings: after milling in rotor/stator homogenizer and sieving
Source text: The milled crystals were then sieved through two separate sieves to eliminate fines or remnant large crystals. […] As shown, the drug crystal obtained have relatively narrow distribution and the minimal amount of fine material and absence of very fine material (no particles below 9 μm).

Row | SMILES | D10 [1] | D50 [1] | D90 [1] | aspect ratio, majority ([2]; majority of aspect ratios) | aspect ratio, range ([2]; whole range) | smallest particle size (no particles below) [3]
1 | CCC(=O)O[C@]1(C(=O)SCF)[C@H](C)C[C@H]2[C@@H]3C[C@H](F)C4=CC(=O)C=C[C@]4(C)[C@@]3(F)[C@@H](O)C[C@@]21C [Batch 3, fluticasone propionate] | 72 µm | 253 µm | 798 µm | – | – | –
2 | CCC(=O)O[C@]1(C(=O)SCF)[C@H](C)C[C@H]2[C@@H]3C[C@H](F)C4=CC(=O)C=C[C@]4(C)[C@@]3(F)[C@@H](O)C[C@@]21C [Batch 4, fluticasone propionate] | 82 µm | 288 µm | 820 µm | – | – | –
3 | CCC(=O)O[C@]1(C(=O)SCF)[C@H](C)C[C@H]2[C@@H]3C[C@H](F)C4=CC(=O)C=C[C@]4(C)[C@@]3(F)[C@@H](O)C[C@@]21C [Batch 2, fluticasone propionate] | 97 µm | 323 µm | 838 µm | – | – | –

The next lines start with the values.

Row | D10 [1] | D50 [1] | D90 [1] | aspect ratio, majority ([2]; majority of aspect ratios) | aspect ratio, range ([2]; whole range) | smallest particle size (no particles below) [3] | SMILES
4 | – | – | – | 5-20 | 3 to 50 | – | CCC(=O)O[C@]1(C(=O)SCF)[C@H](C)C[C@H]2[C@@H]3C[C@H](F)C4=CC(=O)C=C[C@]4(C)[C@@]3(F)[C@@H](O)C[C@@]21C [recrystallized fluticasone propionate, fluticasone propionate]
5 | 119 µm | 365 µm | 876 µm | – | – | – | CCC(=O)O[C@]1(C(=O)SCF)[C@H](C)C[C@H]2[C@@H]3C[C@H](F)C4=CC(=O)C=C[C@]4(C)[C@@]3(F)[C@@H](O)C[C@@]21C [Batch 1, fluticasone propionate]
6 | – | – | – | – | – | ≥ 9 μm | CCC(=O)O[C@]1(C(=O)SCF)[C@H](C)C[C@H]2[C@@H]3C[C@H](F)C4=CC(=O)C=C[C@]4(C)[C@@]3(F)[C@@H](O)C[C@@]21C [resized drug crystals, fluticasone propionate]
